According to patent publication US11214803B2, “Modulators of YAP1 expression” (Ionis Pharmaceuticals, Inc., priority 2019, dated 2022):

Assays:
Yap1 mRNA [1] = assay: Yap1 mRNA in SNU-1066 cells, RNA analysis (Example 44); type: cell-based, human; conditions: free uptake, approximately 48 hours
Procedure: Modified oligonucleotides described in the studies above were tested at various doses in laryngeal squamous cell carcinoma line SNU-1066. A control oligonucleotide 792169, described herein above, was also tested.
(§1) Cultured SNU-1066 cells at a density of 5000 cells per well were treated using free uptake with modified oligonucleotides diluted to concentrations described in the tables below. After approximately 48 hours, Yap1 mRNA levels were measured as previously described using the Human Yap1 primer-probe set RTS4814. Yap1 mRNA levels were normalized to actin-beta content, as measured by primer probe set RTS5002. Results are presented in the tables below as percent control of the amount of Yap1 mRNA relative to untreated control cells (% UTC).

CAL33 cells = assay: Cell proliferation assay in CAL33 cells, CellTiter-Glo (Example 36); type: cell-based, human; conditions: free uptake, approximately 144 hours
Procedure: Modified oligonucleotides described in the studies above were tested at various doses in tongue squamous cell carcinoma line CAL33. A control oligonucleotide 792169, described herein above, was also tested.
(§2) Cultured CAL33 cells at a density of 1000 cells/well were treated using free uptake with modified oligonucleotides diluted to concentrations described in the tables below. After approximately 144 hours, cell proliferation was measured using the luminescent cell viability CellTiter-Glo® 2.0 Assay (Promega). Results are presented in the tables below as percent control of the amount of luminescence in samples treated with modified oligonucleotides relative to untreated control cells (% UTC).

Yap1 mRNA [2] = assay: Yap1 mRNA in CAL27 cells, RNA analysis (Example 37); type: cell-based, human; conditions: free uptake, approximately 48 hours
Procedure: Modified oligonucleotides described in the studies above were tested at various doses in tongue squamous cell carcinoma line CAL27. A control oligonucleotide 792169, described herein above, was also tested.
as §1, with “CAL27” for “SNU-1066”

BICR56 cells = assay: Cell proliferation assay in BICR56 cells, CellTiter-Glo (Example 33); type: cell-based, human; conditions: free uptake, approximately 144 hours
Procedure: Modified oligonucleotides described in the studies above were tested at various doses in squamous cell carcinoma adherent keratinocyte cell line BICR56. A control oligonucleotide 792169 was also tested.
as §2, with “BICR56” for “CAL33”

SNU-1214 cells = assay: Cell proliferation assay in SNU-1214 cells, CellTiter-Glo (Example 46); type: cell-based, human; conditions: free uptake, approximately 144 hours
Procedure: Modified oligonucleotides described in the studies above were tested at various doses in laryngeal squamous cell carcinoma cell line […]. A control oligonucleotide 792169, described herein above, was also tested.
as §2, with “SNU-1214” for “CAL33”

SNU-899 cells = assay: Cell proliferation assay in SNU-899 cells, CellTiter-Glo (Example 43); type: cell-based, human; conditions: free uptake, approximately 144 hours
Procedure: Modified oligonucleotides described in the studies above were tested at various doses in laryngeal squamous cell carcinoma cell line SNU-899. A control oligonucleotide 792169, described herein above, was also tested.
as §2, with “SNU-899” for “CAL33”

CAL33 xenograft tumor = assay: Tumor volume and tumor weight in CAL33 xenograft tumor model (Example 29); type: in vivo, human; conditions: 50 mg/kg twice weekly for two weeks; for Average Tumor Volume: CAL33 xenografts
Procedure: A xenograft tumor model was used to evaluate activity of modified oligonucleotides targeted to human Yap1. One million CAL33 cells in 30% matrigel were implanted subcutaneously into the flanks of female CrTac:NCr-Foxnlnu (Taconic) mice. When tumors reached an average volume of 100 mm^3, approximately two weeks post-implantation, groups of eight mice were administered at 50 mg/kg twice weekly with modified oligonucleotides for two weeks. ION 792169 was administered as a control.
Tumor volume was measured at the indicated days in the table below. Tumor weight was determined at end of study. Mice were sacrificed when tumors from PBS-treated mice reached 2,000 mm3.

SCC-15 cells = assay: Cell proliferation assay in SCC-15 cells, CellTiter-Glo (Example 41); type: cell-based, human; conditions: free uptake, approximately 144 hours
Procedure: Modified oligonucleotides described in the studies above were tested at various doses in tongue squamous cell carcinoma cell line SCC-15. A control oligonucleotide 792169, described herein above, was also tested.
as §2, with “SCC-15” for “CAL33”

With “CGCCGATAAGGTACAC (cEt gapmer, phosphorothioate backbone, further chemistry not given here) [ION 792169, reference compound]” the “human Yap1 mRNA expression” value (Yap1 mRNA [1]; 0.04 μM) was 91 % UTC, the “human Yap1 mRNA expression” value (Yap1 mRNA [1]; 0.2 μM) was 94 % UTC and the “human Yap1 mRNA expression” value (Yap1 mRNA [1]; 1 μM) was 93 % UTC. The “human Yap1 mRNA expression” value (Yap1 mRNA [1]; 5 μM) was 98 % UTC, the “Antiproliferative effect (cell proliferation, luminescence)” value (“Antiproliferative effect” for short) (CAL33 cells; 0.04 μM) was 92 % UTC and the “Antiproliferative effect” value (CAL33 cells; 0.2 μM) was 93 % UTC. For the same sequence, the “Antiproliferative effect” value (CAL33 cells; 1 μM) was 81 % UTC, the “Antiproliferative effect” value (CAL33 cells; 5 μM) was 67 % UTC and the “human Yap1 mRNA expression” value (Yap1 mRNA [2]; 0.08 μM) was 95 % UTC. The “human Yap1 mRNA expression” value (Yap1 mRNA [2]; 0.4 μM) was 90 % UTC, the “human Yap1 mRNA expression” value (Yap1 mRNA [2]; 2 μM) was 97 % UTC and the “human Yap1 mRNA expression” value (Yap1 mRNA [2]; 10 μM) was 88 % UTC. For the same sequence, the “Antiproliferative effect” value (BICR56 cells; 0.04 μM) was 106 % UTC, the “Antiproliferative effect” value (BICR56 cells; 0.2 μM) was 100 % UTC and the “Antiproliferative effect” value (BICR56 cells; 1 μM) was 92 % UTC. For the same sequence, the “Antiproliferative effect” value (BICR56 cells; 5 μM) was 87 % UTC, the “Antiproliferative effect” value (SNU-1214 cells; 0.04 μM) was 105 % UTC and the “Antiproliferative effect” value (SNU-1214 cells; 0.2 μM) was 90 % UTC. For the same sequence, the “Antiproliferative effect” value (SNU-1214 cells; 1 μM) was 96 % UTC, the “Antiproliferative effect” value (SNU-1214 cells; 5 μM) was 72 % UTC and the “Antiproliferative effect” value (SNU-899 cells; 0.04 μM) was 90 % UTC. For the same sequence, the “Antiproliferative effect” value (SNU-899 cells; 0.2 μM) was 94 % UTC, the “Antiproliferative effect” value (SNU-899 cells; 1 μM) was 96 % UTC and the “Antiproliferative effect” value (SNU-899 cells; 5 μM) was 86 % UTC. The “Average Tumor weight” value (CAL33 xenograft tumor; CAL33 xenograft mice, end of study) was 0.85 g, the “Average Tumor Volume” value (CAL33 xenograft tumor; day 10 post-implantation) was 123 mm^3 and the “Average Tumor Volume” value (CAL33 xenograft tumor; day 13 post-implantation) was 262 mm^3. The “Average Tumor Volume” value (CAL33 xenograft tumor; day 17 post-implantation) was 367 mm^3, the “Average Tumor Volume” value (CAL33 xenograft tumor; day 21 post-implantation) was 531 mm^3 and the “Average Tumor Volume” value (CAL33 xenograft tumor; day 24 post-implantation) was 774 mm^3. The “Average Tumor Volume” value (CAL33 xenograft tumor; day 27 post-implantation) was 805 mm^3, the “Average Tumor Volume” value (CAL33 xenograft tumor; day 31 post-implantation) was 962 mm^3 and the “Average Tumor Volume” value (CAL33 xenograft tumor; day 34 post-implantation) was 1057 mm^3. For the same sequence, the “Average Tumor Volume” value (CAL33 xenograft tumor; day 38 post-implantation) was 1171 mm^3, the “Average Tumor Volume” value (CAL33 xenograft tumor; day 40 post-implantation) was 1160 mm^3 and the “Average Tumor Volume” value (CAL33 xenograft tumor; day 44 post-implantation) was 1069 mm^3. The “Antiproliferative effect” value (SCC-15 cells; 0.04 μM) was 93 % UTC, the “Antiproliferative effect” value (SCC-15 cells; 0.2 μM) was 92 % UTC and the “Antiproliferative effect” value (SCC-15 cells; 1 μM) was 89 % UTC. The “Antiproliferative effect” value (SCC-15 cells; 5 μM) was 71 % UTC.
